Values after ≈ are worked out from the molar mass of the structure shown. Active and inactive are the calls of the source. The rule behind the calls is not given here.
Columns and labels:
[1] = biological target: T1, Inhibitor of nuclear factor kappa-B kinase subunit alpha (Homo sapiens, UniProt O15111)
T1 sequence (O15111 whole entry): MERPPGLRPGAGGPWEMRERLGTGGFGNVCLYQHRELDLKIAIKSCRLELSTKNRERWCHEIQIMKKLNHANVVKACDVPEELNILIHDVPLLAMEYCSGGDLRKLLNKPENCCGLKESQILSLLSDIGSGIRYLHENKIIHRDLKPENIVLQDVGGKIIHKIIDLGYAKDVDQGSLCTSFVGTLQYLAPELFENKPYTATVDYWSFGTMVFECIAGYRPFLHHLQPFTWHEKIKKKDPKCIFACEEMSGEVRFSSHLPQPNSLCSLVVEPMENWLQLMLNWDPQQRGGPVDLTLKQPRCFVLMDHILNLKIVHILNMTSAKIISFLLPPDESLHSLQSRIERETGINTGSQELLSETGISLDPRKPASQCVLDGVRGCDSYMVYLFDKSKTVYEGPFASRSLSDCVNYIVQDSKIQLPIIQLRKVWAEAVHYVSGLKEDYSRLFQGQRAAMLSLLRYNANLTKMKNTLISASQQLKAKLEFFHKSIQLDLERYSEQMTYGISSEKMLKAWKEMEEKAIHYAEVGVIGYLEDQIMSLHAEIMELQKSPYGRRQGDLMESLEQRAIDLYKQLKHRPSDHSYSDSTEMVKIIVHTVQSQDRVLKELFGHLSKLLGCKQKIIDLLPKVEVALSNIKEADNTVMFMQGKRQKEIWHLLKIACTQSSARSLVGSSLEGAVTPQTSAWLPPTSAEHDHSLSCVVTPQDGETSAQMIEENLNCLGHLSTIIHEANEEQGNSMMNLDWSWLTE

[2] = biological target: T2, Inhibitor of nuclear factor kappa-B kinase subunit beta (Homo sapiens, UniProt O14920)
T2 sequence (O14920 whole entry): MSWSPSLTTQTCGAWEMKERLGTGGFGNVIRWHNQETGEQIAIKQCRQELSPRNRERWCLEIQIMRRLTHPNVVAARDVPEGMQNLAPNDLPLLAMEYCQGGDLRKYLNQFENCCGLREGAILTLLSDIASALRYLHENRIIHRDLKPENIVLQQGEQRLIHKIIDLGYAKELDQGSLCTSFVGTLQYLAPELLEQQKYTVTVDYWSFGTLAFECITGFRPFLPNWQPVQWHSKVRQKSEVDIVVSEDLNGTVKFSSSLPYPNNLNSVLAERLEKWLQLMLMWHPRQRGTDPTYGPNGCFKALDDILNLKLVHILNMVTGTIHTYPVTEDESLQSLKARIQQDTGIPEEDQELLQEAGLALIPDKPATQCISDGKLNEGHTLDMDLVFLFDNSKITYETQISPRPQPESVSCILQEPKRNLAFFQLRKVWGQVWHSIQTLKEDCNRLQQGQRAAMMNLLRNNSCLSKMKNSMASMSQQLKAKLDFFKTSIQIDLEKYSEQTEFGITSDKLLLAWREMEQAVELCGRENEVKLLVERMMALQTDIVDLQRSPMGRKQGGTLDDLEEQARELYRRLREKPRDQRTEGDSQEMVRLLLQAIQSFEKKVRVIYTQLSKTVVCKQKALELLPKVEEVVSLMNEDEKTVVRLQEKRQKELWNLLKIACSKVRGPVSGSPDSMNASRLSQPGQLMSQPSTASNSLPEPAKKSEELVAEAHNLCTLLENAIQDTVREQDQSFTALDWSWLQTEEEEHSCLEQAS

[3] = Cytotoxicity against Jurkat cells by Alamar blue assay; conditions: human, Jurkat cells
[4] = Aqueous solubility in sodium phosphate buffer at pH 6.5; type: physicochemical
Liver microsomes = experiment: Metabolic stability in human liver microsomes; type: ADME, Microsome
Liver = experiment: Metabolic stability in mouse liver microsomes; type: ADME, Microsome
[5] = Cmax in mouse at 10 mg/kg, po; type: ADME, organism-based; design: dose 10 mg/kg, route oral; conditions: in vivo
[6] = AUC(1 to 4 hrs) in mouse at 10 mg/kg, po; type: ADME, organism-based; design: time upper 4 hr, time lower 1 hr, dose 10 mg/kg, route oral; conditions: plasma
PBMC = experiment: Inhibition of LPS-induced TNFalpha production in PBMC; type: functional, cell-based; conditions: Homo sapiens
[7] = Tmax in mouse at 10 mg/kg, po; type: ADME, organism-based; design: dose 10 mg/kg, route oral; conditions: in vivo
Jurkat = experiment: Inhibition of TNF-alpha-induced response in Jurkat cells; conditions: Homo sapiens
Mus musculus [8] = experiment: Reduction of LPS-induced TNFalpha release in mouse at 30 mg/kg administered 1 hr before LPS challenge; type: functional; design: scale not given: the % may be the effect or the level left
[9] = Drug level in LPS-challenged mouse serum at 30 mg/kg after 2.5 hrs; type: ADME, organism-based; design: dose 30 mg/kg; conditions: read-out: Activity
Mus musculus [10] = experiment: Reduction of LPS-induced TNFalpha release in mouse at 30 mg/kg administered 4 hrs before LPS challenge; type: functional; design: scale not given: the % may be the effect or the level left
[11] = Drug level in LPS-challenged mouse serum at 30 mg/kg after 5.5 hrs; type: ADME, organism-based; design: dose 30 mg/kg; conditions: read-out: Activity
[12] = biological target: T3, Inhibitor of nuclear factor kappa-B kinase subunit epsilon (Homo sapiens) (UniProt Q14164); experiment: Inhibition of IKKepsilon
T3 sequence (whole entry): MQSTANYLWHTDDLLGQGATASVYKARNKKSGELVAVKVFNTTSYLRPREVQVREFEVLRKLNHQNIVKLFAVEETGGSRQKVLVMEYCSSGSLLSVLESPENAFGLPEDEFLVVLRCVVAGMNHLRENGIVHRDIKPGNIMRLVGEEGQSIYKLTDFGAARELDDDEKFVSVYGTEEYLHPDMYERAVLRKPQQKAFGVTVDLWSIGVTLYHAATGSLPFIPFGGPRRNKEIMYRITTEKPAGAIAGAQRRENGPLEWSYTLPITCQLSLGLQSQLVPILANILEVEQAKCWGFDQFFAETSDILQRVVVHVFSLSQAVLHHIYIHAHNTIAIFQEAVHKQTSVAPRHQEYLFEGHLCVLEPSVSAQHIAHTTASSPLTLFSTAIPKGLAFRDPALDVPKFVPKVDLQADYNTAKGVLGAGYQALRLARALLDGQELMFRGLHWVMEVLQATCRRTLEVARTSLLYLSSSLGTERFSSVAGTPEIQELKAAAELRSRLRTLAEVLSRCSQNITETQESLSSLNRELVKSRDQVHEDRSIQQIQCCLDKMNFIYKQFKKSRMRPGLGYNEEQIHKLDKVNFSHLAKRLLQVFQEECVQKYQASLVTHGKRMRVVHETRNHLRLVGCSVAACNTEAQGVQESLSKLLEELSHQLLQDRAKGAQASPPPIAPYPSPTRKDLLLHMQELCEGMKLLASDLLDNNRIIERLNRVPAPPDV

[13] = biological target: MAP kinase p38 (Homo sapiens) (UniProt O15264+Q15759+Q16539+P53778); experiment: Inhibition of p38; type: protein assay
[14] = biological target: Epidermal growth factor receptor (Homo sapiens) (UniProt P00533); experiment: Inhibition of Her1
[15] = biological target: Receptor tyrosine-protein kinase erbB-2 (Homo sapiens) (UniProt P04626); experiment: Inhibition of Her2
[16] = biological target: Tyrosine-protein kinase Lck (Homo sapiens) (UniProt P06239); experiment: Inhibition of LCK
[17] = biological target: T4, Tyrosine-protein kinase ITK/TSK (Homo sapiens) (UniProt Q08881); experiment: Inhibition of EMT
T4 sequence (whole entry): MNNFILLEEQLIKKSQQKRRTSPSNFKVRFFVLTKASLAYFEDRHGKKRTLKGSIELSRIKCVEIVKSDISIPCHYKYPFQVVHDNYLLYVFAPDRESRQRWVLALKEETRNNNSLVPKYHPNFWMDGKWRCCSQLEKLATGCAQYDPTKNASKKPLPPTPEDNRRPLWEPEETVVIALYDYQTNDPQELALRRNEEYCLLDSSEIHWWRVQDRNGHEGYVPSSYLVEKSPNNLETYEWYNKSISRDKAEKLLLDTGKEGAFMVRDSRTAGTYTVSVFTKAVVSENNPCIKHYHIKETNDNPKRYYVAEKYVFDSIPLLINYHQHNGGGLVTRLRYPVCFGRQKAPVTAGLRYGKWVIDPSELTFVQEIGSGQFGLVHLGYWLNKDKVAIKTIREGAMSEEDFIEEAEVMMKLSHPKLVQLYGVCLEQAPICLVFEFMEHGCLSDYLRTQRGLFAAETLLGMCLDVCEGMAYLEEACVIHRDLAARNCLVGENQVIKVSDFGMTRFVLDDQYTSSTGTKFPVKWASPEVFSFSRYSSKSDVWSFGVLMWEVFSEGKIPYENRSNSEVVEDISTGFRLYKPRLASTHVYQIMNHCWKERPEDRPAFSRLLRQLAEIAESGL

Homo sapiens [18] = species: Homo sapiens; experiment: Inhibition of VEGF
[19] = biological target: Insulin-like growth factor 1 receptor (Homo sapiens) (UniProt P08069); experiment: Inhibition of IGF1R
Homo sapiens [20] = species: Homo sapiens; experiment: Inhibition of PKA

Tyrosine-protein kinase Lck (Homo sapiens), sequence (P06239 2-509 limits assumed): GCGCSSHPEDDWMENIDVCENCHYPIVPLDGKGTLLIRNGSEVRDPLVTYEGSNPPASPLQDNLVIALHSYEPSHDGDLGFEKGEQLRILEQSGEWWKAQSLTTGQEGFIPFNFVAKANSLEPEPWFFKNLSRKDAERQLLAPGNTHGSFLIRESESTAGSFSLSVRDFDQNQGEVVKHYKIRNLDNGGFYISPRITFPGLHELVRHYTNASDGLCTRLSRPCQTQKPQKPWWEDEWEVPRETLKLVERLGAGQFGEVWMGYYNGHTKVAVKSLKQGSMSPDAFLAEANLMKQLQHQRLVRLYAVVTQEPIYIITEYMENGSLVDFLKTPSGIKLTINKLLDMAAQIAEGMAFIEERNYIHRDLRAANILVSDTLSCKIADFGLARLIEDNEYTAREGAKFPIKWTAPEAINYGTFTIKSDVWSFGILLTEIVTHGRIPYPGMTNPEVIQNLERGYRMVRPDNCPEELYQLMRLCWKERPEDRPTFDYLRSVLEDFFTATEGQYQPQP
Receptor tyrosine-protein kinase erbB-2 (Homo sapiens), sequence (P04626 whole entry): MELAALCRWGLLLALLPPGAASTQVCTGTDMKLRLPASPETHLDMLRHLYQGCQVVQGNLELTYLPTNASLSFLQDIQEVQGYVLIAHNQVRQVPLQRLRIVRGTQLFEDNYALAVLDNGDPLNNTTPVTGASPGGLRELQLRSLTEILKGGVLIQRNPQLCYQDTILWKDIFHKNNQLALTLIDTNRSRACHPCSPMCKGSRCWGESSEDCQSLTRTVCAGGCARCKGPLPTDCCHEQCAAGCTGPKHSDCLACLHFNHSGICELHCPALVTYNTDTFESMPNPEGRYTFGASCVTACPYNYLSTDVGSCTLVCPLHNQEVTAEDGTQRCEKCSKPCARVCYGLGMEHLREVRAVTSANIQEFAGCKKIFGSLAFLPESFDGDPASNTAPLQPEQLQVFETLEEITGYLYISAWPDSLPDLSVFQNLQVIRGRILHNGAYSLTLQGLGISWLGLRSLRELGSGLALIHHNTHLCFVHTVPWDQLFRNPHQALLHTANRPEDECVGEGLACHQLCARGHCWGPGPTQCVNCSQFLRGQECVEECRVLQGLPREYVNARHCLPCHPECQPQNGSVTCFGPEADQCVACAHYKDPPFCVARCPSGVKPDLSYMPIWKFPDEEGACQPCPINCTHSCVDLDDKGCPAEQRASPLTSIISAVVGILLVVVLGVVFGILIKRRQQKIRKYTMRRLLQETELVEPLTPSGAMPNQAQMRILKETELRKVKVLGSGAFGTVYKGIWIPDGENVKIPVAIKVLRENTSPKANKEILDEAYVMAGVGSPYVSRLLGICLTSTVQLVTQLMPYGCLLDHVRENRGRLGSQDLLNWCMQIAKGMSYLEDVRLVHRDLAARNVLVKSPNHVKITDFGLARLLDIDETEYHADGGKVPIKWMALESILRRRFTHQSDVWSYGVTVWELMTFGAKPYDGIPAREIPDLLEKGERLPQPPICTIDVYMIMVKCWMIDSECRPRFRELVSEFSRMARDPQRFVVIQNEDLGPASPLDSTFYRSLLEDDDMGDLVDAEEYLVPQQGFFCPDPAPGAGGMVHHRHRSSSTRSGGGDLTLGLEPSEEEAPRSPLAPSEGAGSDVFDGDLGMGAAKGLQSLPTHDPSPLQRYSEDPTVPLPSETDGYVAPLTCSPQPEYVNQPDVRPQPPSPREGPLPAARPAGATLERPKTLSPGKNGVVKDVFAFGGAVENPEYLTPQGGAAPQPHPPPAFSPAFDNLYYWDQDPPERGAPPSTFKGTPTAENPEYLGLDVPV
Insulin-like growth factor 1 receptor (Homo sapiens), sequence (P08069 31-736 limits assumed): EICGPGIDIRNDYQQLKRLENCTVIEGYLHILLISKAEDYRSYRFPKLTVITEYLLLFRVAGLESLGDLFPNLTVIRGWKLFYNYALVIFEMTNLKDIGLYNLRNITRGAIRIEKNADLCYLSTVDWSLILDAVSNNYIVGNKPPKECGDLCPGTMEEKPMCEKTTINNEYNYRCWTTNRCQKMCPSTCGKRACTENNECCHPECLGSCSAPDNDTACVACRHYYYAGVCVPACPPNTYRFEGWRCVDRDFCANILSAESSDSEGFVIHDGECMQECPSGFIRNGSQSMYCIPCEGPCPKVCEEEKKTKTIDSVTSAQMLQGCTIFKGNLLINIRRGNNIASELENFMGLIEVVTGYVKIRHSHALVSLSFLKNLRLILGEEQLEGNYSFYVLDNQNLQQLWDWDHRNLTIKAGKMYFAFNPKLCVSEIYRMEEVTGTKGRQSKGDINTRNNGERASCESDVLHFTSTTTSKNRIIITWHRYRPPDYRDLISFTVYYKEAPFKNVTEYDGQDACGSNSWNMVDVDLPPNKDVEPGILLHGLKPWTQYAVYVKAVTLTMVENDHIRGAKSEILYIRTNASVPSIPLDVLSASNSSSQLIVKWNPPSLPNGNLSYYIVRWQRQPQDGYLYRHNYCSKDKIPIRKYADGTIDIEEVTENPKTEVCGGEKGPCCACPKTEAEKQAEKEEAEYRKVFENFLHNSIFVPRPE
Insulin-like growth factor 1 receptor (Homo sapiens), sequence (P08069 741-1367 limits assumed): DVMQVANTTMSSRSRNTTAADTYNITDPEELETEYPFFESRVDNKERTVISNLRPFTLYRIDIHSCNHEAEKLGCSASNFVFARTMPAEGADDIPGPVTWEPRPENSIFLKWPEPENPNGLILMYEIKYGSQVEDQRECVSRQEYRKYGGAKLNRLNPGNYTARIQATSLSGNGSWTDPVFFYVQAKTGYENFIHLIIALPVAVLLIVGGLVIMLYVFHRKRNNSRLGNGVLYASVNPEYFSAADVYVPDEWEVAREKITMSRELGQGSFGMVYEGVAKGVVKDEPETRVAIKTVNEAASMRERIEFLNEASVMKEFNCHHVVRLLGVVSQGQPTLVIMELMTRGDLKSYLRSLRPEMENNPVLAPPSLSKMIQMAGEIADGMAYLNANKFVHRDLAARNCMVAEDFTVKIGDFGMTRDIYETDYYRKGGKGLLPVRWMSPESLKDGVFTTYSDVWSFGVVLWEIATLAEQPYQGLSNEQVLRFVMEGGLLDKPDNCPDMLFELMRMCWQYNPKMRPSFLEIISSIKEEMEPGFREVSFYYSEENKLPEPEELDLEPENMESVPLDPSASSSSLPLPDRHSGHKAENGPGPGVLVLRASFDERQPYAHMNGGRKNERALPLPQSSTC
Epidermal growth factor receptor (Homo sapiens), sequence (P00533 whole entry): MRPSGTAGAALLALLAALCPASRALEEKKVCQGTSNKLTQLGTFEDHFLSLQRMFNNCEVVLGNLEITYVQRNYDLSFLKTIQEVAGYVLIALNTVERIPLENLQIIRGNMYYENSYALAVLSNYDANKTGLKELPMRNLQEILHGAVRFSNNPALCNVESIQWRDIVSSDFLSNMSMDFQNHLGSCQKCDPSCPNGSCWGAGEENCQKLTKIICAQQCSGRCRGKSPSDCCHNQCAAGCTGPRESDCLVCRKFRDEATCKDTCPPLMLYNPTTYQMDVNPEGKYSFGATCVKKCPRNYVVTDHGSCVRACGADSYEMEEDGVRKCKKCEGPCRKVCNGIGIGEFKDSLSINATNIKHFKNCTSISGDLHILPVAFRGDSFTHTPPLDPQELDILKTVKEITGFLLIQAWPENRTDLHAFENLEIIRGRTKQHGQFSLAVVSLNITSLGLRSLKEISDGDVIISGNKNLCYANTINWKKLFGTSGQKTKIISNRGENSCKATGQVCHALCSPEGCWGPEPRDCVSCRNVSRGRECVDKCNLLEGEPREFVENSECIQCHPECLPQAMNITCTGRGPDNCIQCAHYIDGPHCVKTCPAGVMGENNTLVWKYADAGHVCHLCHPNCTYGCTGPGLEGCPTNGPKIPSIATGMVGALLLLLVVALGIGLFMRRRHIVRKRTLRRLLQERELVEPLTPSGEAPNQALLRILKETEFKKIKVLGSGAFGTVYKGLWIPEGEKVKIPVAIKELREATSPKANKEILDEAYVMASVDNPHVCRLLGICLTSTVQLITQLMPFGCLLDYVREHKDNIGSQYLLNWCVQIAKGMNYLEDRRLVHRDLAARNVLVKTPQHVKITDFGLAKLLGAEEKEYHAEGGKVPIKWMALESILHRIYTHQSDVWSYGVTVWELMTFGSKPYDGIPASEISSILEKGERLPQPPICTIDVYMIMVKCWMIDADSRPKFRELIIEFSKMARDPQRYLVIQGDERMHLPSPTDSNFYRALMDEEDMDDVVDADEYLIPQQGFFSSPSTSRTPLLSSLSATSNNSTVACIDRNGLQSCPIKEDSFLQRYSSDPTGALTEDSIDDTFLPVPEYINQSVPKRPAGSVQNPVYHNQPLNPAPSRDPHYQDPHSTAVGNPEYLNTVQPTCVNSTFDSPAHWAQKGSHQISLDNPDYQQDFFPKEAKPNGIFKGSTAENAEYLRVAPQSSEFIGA

Row | IC50 [1] | IC50 [2] | solubility [4] | Stability (Liver microsomes) | Stability (Liver) | Cmax [5] | AUC(0-t) [6] | Tmax [7] | EC50 (Jurkat) | concentration at 2.5 h [9] | concentration at 5.5 h [11] | Compound | CC50 [3] | EC50 (PBMC) | Activity (Mus musculus [8]) | Activity (Mus musculus [10]) | further results
1 | 1010 nM | 590 nM | 44 µg/mL (≈ 108 µM) | 0.069 nmol/mg/min | 0.145 nmol/mg/min | 8.6 µM | 9.89 µM·h | 30 min | 1050 nM | – | – | CCNC(=O)C(N)Cc1cccc(-c2cc3nc(NC)c4ncc(C)n4c3s2)c1 (racemic) | 71000 nM | 140 nM | – | – | –
2 | – | – | – | < 0.01 nmol/mg/min | 0.016 nmol/mg/min | 1.4 µM | 3.8 µM·h | 30 min | 13300 nM | 7.6 µM | 4.2 µM | Cc1ccc2nc(NCCN)c3ncc(C)n3c2c1 [BMS-345541] | 100000 nM | 800 nM | 82% | 70% | –
3 | 1090 nM | 27 nM | < 1 µg/mL | – | – | – | – | – | 1350 nM | – | – | CNc1nc2cc(-c3ccccc3)sc2n2c(C)cnc12 | > 100000 nM | – | – | – | Activity [12]: inactive; Activity [13]: inactive; Activity [14]: inactive; Activity [15]: inactive; Activity [16]: inactive; Activity [17]: inactive; Activity (Homo sapiens [18]): inactive; Activity [19]: inactive; Activity (Homo sapiens [20]): inactive
4 | 390 nM | 13 nM | – | 0.017 nmol/mg/min | 0.07 nmol/mg/min | 5.2 µM | 9.6 µM·h | 60 min | 1810 nM | 14.3 µM | 2.1 µM | CNc1nc2cc(-c3cccc(CCNCC(N)=O)c3)sc2n2c(C)cnc12 | > 100000 nM | 1370 nM | 49% | inactive | –
